Results taken from article PMC12698583, “Efficacy of sulfonamides targeting malic enzyme in an animal model of Chagas disease” (Frontiers in Pharmacology, 2025).

Experiments:
Kinetic solubility = format: physicochemical; details: 25 °C
Procedure: These conditions simulate stomach acidity, plasma neutrality, and intestinal basicity.
For the chemical stability experiment, the compounds were evaluated under the same conditions with an additional incubation at 37 °C for a period of 24 h. The analysis was performed using an analytical method developed and validated by high-performance liquid chromatography with UV detection (HPLC-UV). Compounds were quantified in different pH media by comparing the areas where the substances were completely soluble with those in the reaction media. The experiments were performed in a triplicate.
These conditions simulate stomach acidity, plasma neutrality, and intestinal basicity. […] For the chemical stability experiment, the compounds were evaluated under the same conditions with an additional incubation at 37°C for a period of 24 hours. The analysis was performed using an analytical method developed and validated by high-performance liquid chromatography with UV detection (HPLC-UV). Compounds were quantified in the different pH media by comparing the areas where the substances were completely soluble with those in the reaction media. The experiments were performed in triplicate.

[1] = Host cell cytotoxicity in the image-based assay (total host cells); details: rat, H9c2 rat cardiomyoblasts (infected with T. cruzi), 72 h treatment
Procedure: Tested compounds were dissolved and serially diluted in dimethylsulfoxide (DMSO) using a half-log dilution across six concentrations. Intermediate plates were prepared by diluting compounds 1:25 in DMEM (Dulbecco’s Modified Eagle Medium) with 10% FBS (Fetal Bovine Serum). The assay was based on [Fredo Naciuk et al. (2020)], with minor modifications. Briefly, T. cruzi trypomastigotes (from LLC-MK2 cultures, 6 days post-infection) were used to infect H9c2 rat cardiomyoblasts overnight (16–18 h) at MOI 1. After washing with PBS, cells were trypsinized and resuspended in DMEM at 2.3 × 10^4 cells/mL. Then, 65 μL per well was plated in 384-well plates and incubated for 24 h (37 °C, 5% CO2, >95% humidity). Subsequently, 7.5 μL of compound solution was added (final [DMSO] 0.4%). After 72 h of treatment, cells were fixed with 4% PFA and stained with Hoechst 33342 (4 μg/mL). Six images per well were acquired using the Operetta system (PerkinElmer) and analyzed with Columbus software to quantify infected cells (≥3 cytoplasmic parasite spots).

[2] = molecular target: T. cruzi malic enzyme (TcME) (Trypanosoma cruzi, UniProt Q4DJ68); experiment: Malic enzyme (TcME) inhibition assay, diaphorase/resazurin coupled; format: biochemical; details: concentration necessary to inhibit 50% of T. cruzi Malic enzyme enzymatic activity
Procedure: The TcME inhibition assay was performed as previously described, with minor modifications ([Mercaldi et al., 2021]). Briefly, a coupled assay with the enzyme diaphorase and resorufin fluorescence (Ex 545 nm/Em 600 nm) was recorded every 30 s for 6 min in a CLARIOstar plate reader (BMG LabTech). The final concentrations of reagents in the assay were: 0.02 mM NADP+, 0.4 mM L-aspartate, 0.45 nM TcMEc, 1 U/mL diaphorase, and 10 μM resazurin, all in 50 mM Tris-HCl buffer containing 50 mM NaCl and 2 mM MnCl2 at pH 7.5. The reaction was initiated by adding 1.32 mM L-malate.

Caco-2 cells = experiment: Caco-2 permeability assay; format: in vitro ADME
Procedure: (§1) Caco-2 cells (2.5 × 10^5) were cultured on 12 mm diameter filters with DMEM-PEST medium in an incubator at 37 °C and 10% CO2. Monolayer formation was monitored through transepithelial electrical resistance (TEER). […] The assay was conducted under orbital shaking at 37 °C. […] Compound quantification was performed using the HPLC-UV method, following the previously adjusted chromatographic conditions and parameters. At the end of the experiment, monolayer integrity was confirmed by measuring TEER.

[3] = Caco-2 permeability assay; format: in vitro ADME; details: human, Caco-2; apical to basolateral, 0.1 mM, 120 min
Procedure: as §1

[4] = Metabolic stability in rat liver microsomes; format: in vitro ADME; details: for half-life at 1 μM / microsomal CLint at 1 μM: Sprague-Dawley, pH 7.4, rat liver microsomes; for half-life at 1 μM: 0.25 mg/mL, read-out: T1/2 rat; for microsomal CLint at 1 μM: read-out: CL int. mic.; for parent compound remaining: rat microsomes
Procedure: (§2) The in vitro metabolic stability of the compound was evaluated in pooled human liver microsomes (HLM, 20 mg/mL), Sprague-Dawley rat liver microsomes (RLM, 20 mg/mL), and CD-1 mouse liver microsomes (MLM, 20 mg/mL), all purchased from GIBCO (Thermo Fisher Scientific). NADPH regenerating system (GentestTM) was prepared in potassium phosphate buffer (100 mM, pH 7.4). […] The reaction was stopped by adding acetonitrile, followed by vortex homogenization, sonication for 5 min, and centrifugation at 10,000 g for 5 min at 4 °C. The supernatants were transferred to glass vials for LC-MS/MS analysis. The half-life was estimated based on the area under the curve (AUC) through regression analysis of the concentration decay over time. This calculation was performed using the following formula: t1/2=LN2/Kel
(§3) Where LN is the neperian logarithm, and K is the slope of the regression of the LN of AUC as a function of time. Then, the microsomal intrinsic clearance (CLint, mic) was calculated using the following equation: CLint.mic=LN2/t1/2 x VI/PM
(§4) Where V is the incubation volume (µL), and PM is the microsomal protein concentration (mg). This intrinsic clearance can be extrapolated to the whole liver (CLint,hep) using the following equation: CLint.hep=CLint.mic x ML x LB
(§5) ML is the microsomal yield, and LB is the liver weight (g) per kilogram of body weight.
(§6) To ensure the linearity of the elimination phase and to avoid the influence of points outside the log-linear range, the points deviated from the expected first-order kinetic profile were excluded. The supernatants were analyzed by UPLC-Xevo-TQ-XS from Waters. Chromatographic separation was performed on an Acquity UPLC BEH C18 column (2.1 × 100 mm, 1.7 µm particle size), maintained at 40 °C. The mobile phases were (A) water with 0.1% formic acid and (B) acetonitrile with 0.1% formic acid. […] The total run time was 5 min.

[5] = Metabolic stability in human liver microsomes; format: in vitro ADME; details: for parent compound remaining: human microsomes; for half-life at 1 μM / microsomal CLint at 1 μM: pooled liver microsomes, pH 7.4, human liver microsomes; for half-life at 1 μM: 0.25 mg/mL, read-out: T1/2 human; for microsomal CLint at 1 μM: read-out: CL int. mic.
Procedure: as §2, §3, §4, §5, §6

[6] = Lipophilicity assay (LogD at pH 7.4), shake flask; format: physicochemical; details: pH 7.4, n-octanol/phosphate buffer
[7] = across pH conditions (1.7, 7.4, 8.9)

Chain of T. cruzi malic enzyme (TcME) (Q4DJ68 entry or part of it): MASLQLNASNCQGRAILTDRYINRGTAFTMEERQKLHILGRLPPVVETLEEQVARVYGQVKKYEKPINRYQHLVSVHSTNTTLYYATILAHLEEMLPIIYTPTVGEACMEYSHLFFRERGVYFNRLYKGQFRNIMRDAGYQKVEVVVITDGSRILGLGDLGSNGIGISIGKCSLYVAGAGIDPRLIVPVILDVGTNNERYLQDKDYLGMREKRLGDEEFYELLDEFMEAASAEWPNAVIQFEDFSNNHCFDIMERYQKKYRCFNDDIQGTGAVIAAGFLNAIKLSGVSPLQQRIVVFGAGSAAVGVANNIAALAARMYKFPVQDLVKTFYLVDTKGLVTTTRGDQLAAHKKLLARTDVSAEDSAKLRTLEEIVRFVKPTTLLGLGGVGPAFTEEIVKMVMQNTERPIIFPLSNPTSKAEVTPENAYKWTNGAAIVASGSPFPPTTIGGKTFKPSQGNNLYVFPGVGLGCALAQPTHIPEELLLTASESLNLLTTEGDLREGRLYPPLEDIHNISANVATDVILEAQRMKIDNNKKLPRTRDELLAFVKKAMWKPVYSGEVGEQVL

| Kinetic solubility (Kinetic solubility; acidic pH (1.7), 5 µM) [%] | Kinetic solubility (Kinetic solubility; [7]) | Kinetic solubility (Kinetic solubility; basic pH (8.9), 5 µM) [%] | Kinetic solubility (Kinetic solubility; neutral pH (7.4), 5 µM) [%] | IC50 [2] [µM] | Papp at 120 min, 0.1 mM [3] [×10⁻⁶ cm/s] | half-life at 1 μM [4] [min] | microsomal CLint at 1 μM [4] [µL/min/mg] | parent compound remaining ([4]; 5 min) [%] | parent compound remaining ([4]; 60 min) | parent compound remaining ([5]; 5 min) [%] | parent compound remaining ([5]; 60 min) | half-life at 1 μM [5] [min] | microsomal CLint at 1 μM [5] [µL/min/mg] | logD at 90 min [6] | Compound | CC50 at 72 h [1] [µM] | Caco-2 permeability classification (in words) (Caco-2 cells) |
| --- | --- | --- | --- | --- | --- | --- | --- | --- | --- | --- | --- | --- | --- | --- | --- | --- | --- |
| 75 | above 60% | 75 | 75 | 0.5 | 9.71 | 10 | 55 | 55 | about 1% | 47 | about 1% | 7 | 78 | 2.5 | COc1ccc(NS(=O)(=O)c2cccc(NC(=O)c3cnccn3)c2)cc1 [AC-R008, N-(3-(N-(4-methoxyphenyl)sulfamoyl)phenyl)pyrazine-2-carboxamide] | 99 | near the lower limit for moderate permeability |
| 65 | above 60% | 74 | 65 | 7 | 20.7 | 9 | 61 |  |  |  |  | 6 | 97 | 3 | CC(C)Oc1ccc(NS(=O)(=O)c2cccc(NC(=O)c3cnccn3)c2)cc1 [AC-M110, N-(3-(N-(4-isopropoxyphenyl)sulfamoyl)phenyl)pyrazine-2-carboxamide] | 63 | approaching high permeability classification |
